Data taken from patent US20080045514A1 (Cytovia, Inc., priority 2006, published 2008).
Read-outs that look alike come from different tables or passages of the source.

How the values were obtained:
Type in all cases: cell-based
[1] = test system: human breast cancer cell line T-47D; test: Caspase cascade activation (EC50), T-47D; conditions: Homo sapiens, T47D cells
Protocol: (§1) Human breast cancer cell lines T-47D, human hepatocellular carcinoma cell line SNU398, human colon carcinoma cell line HCT116, human cancer cell line H1299, human Burkitt's lymphoma cell line Namalwa, human lymphoma cell line Raji, and human B cell lymphoblastoid cell line Ramos were grown according to media component mixtures designated by American Type Culture Collection+10% FCS (Invitrogen Corporation), in a 5% CO2-95% humidity incubator at 37° C. T-47D and H1299 cells were maintained at a cell density between 50 and 80% confluency at a cell density of 0.1 to 0.6×10^6 cells/mL. Cells were harvested at 600×g and resuspended at 0.65×10^6 cells/mL into appropriate media+10% FCS. An aliquot of 22.5 μL of cells was added to a well of a 384-well microtiter plate containing 2.5 μL of a 10% DMSO in RPMI-1640 media solution containing 0.16 to 100 μM of 3-(2-chlorophenyl)-6-(3,4-methylenedioxyphenyl)-7H-[1,2,4]triazolo[3,4-b][1,3,4]thiadiazine or other test compound (0.016 to 10 μM final). An aliquot of 22.5 μL of cells was added to a well of a 384-well microtiter plate containing 2.5 μL of a 10% DMSO in RPMI-1640 media solution without test compound as the control sample. The samples were mixed by agitation and then incubated at 37° C. for 48 h in a 5% CO2-95% humidity incubator. After incubation, the samples were removed from the incubator and 25 μL of a solution containing 14 μM of N—(Ac-DEVD)-N′-ethoxycarbonyl-R110 (SEQ ID No.:1) fluorogenic substrate (Cytovia, Inc.; WO99/18856), 20% sucrose (Sigma), 20 mM DTT (Sigma), 200 mM NaCl (Sigma), 40 mM Na PIPES buffer pH 7.2 (Sigma), and 500 μg/mL lysolecithin (Calbiochem) was added. The samples were mixed by agitation and incubated at room temperature. Using a fluorescent plate reader (Model SPECTRAfluor Plus, Tecan), an initial reading (T=0) was made approximately 1-2 min after addition of the substrate solution, employing excitation at 485 nm and emission at 530 nm, to determine the background fluorescence of the control sample. After the 3 h incubation, the samples were read for fluorescence as above (T=3 h). Calculation: The Relative Fluorescence Unit values (RFU) were used to calculate the sample readings as follows: RFU(T=3H)−Control RFU(T=0)=Net RFU(T=3h) The activity of caspase cascade activation was determined by the ratio of the net RFU value for 3-(2-chlorophenyl)-6-(3,4-methylenedioxyphenyl)-7H-[1,2,4]triazolo[3,4-b][1,3,4]thiadiazine (Example P) or other test compound to that of control samples. The EC50 (nM) was determined by a sigmoidal dose-response calculation (Prism 3.0, GraphPad Software Inc.).

[2] = test system: human hepatocellular carcinoma cell line SNU398; test: Caspase cascade activation (EC50), SNU398; conditions: Homo sapiens, SNU-398, SNU398 cells
Protocol: as §1

[3] = test system: human colon carcinoma cell line HCT116; test: Caspase cascade activation (EC50), HCT116; conditions: Homo sapiens, HCT-116, HCT116 cells
Protocol: as §1

[4] = test system: human Burkitt's lymphoma cell line Namalwa; test: Caspase cascade activation (EC50), Namalwa; conditions: Homo sapiens, Burkitts lymphoma cell, Namalwa cells
Protocol: as §1

[5] = caspase cascade activation, read-out: caspase potency (EC50) T47D
[6] = caspase cascade activation, read-out: caspase potency (EC50) SNU398
[7] = caspase cascade activation, read-out: caspase potency (EC50) HCT116
[8] = caspase cascade activation, read-out: caspase potency (EC50) Namalwa
[9] = read-out: Caspase potency (EC50) T47D
[10] = read-out: Caspase potency (EC50) SNU398
[11] = read-out: Caspase potency (EC50) HCT116
[12] = read-out: Caspase potency (EC50) Namalwa

| Compound | EC50 [1, 5] [nM] | EC50 [2, 6] [nM] | EC50 [3, 7] [nM] | EC50 [4, 8] [nM] | EC50 [1, 9] [nM] | EC50 [2, 10] [nM] | EC50 [3, 11] [nM] | EC50 [4, 12] [nM] |
| --- | --- | --- | --- | --- | --- | --- | --- | --- |
| Cc1ccc(C2=Nn3c(nnc3-c3ccccc3[S+](C)[O-])SC2)cc1 (centres unmarked) [Example 72, 3-(2-Methylsulfinylphenyl)-6-(4-methylphenyl)-7H-[1,2,4]triazolo[3,4-b][1,3,4]thiadiazine] | > 10000 | > 10000 | > 10000 | > 10000 | – | – | – | – |
| Cc1ccc(C2=Nn3c(nnc3-c3ccccc3S(C)(=O)=O)SC2)cc1 [Example 73, 3-(2-Methylsulfonylphenyl)-6-(4-methylphenyl)-7H-[1,2,4]triazolo[3,4-b][1,3,4]thiadiazine] | > 10000 | > 1000 | > 10000 | > 10000 | – | – | – | – |
| Cc1ccc(C2=Nn3c(nnc3-c3ccccc3N)SC2)cc1 [Example 74, 3-(2-Aminophenyl)-6-(4-methylphenyl)-7H-[1,2,4]triazolo[3,4-b][1,3,4]thiadiazine] | > 10000 | 529 | 557 | 507 | – | – | – | – |
| COc1ccccc1-c1nnc2n1N=C(c1ccc(C#N)cc1)CS2 [Example 87, 6-(4-Cyanophenyl)-3-(2-methoxyphenyl)-7H-[1,2,4]triazolo[3,4-b][1,3,4]thiadiazine] | 3330 | 2550 | 5090 | 2280 | – | – | – | – |
| COc1ccccc1-c1nnc2n1NC(c1ccc(C)cc1)CS2 (centres unmarked) [Example 88, 5,6-Dihydro-3-(2-methoxyphenyl)-6-(4-methylphenyl)-7H-[1,2,4]triazolo[3,4-b][1,3,4]thiadiazine] | 5330 | 2530 | 2800 | 1530 | – | – | – | – |
| COc1ccccc1-c1nnc2n1N=C(c1ccc(C(=O)O)cc1)CS2 [Example 89, 6-(4-Carboxyphenyl)-3-(2-Methoxyphenyl)-7H-[1,2,4]triazolo[3,4-b][1,3,4]thiadiazine] | > 10000 | > 10000 | > 10000 | > 10000 | – | – | – | – |
| Cc1ccc(C2=Nn3c(nnc3-c3ccc[nH]3)SC2)cc1 [Example 92, 6-(4-Methylphenyl)-3-(1H-pyrrol-2-yl)-7H-[1,2,4]triazolo[3,4-b][1,3,4]thiadiazine] | > 10000 | > 10000 | > 10000 | > 10000 | – | – | – | – |
| Cc1ccc(C2=Nn3c(nnc3-c3snnc3C)SC2)cc1 [Example 93, 3-(4-Methyl-1,2,3-thiadiazol-5-yl)-6-(4-methylphenyl)-7H-[1,2,4]triazolo[3,4-b][1,3,4]thiadiazine] | > 10000 | > 10000 | > 10000 | > 10000 | – | – | – | – |
| Cc1ccc(C2=Nn3c(nnc3-c3cccn3C)SC2)cc1 [Example 94, 3-(1-Methyl-1H-pyrrol-2-yl)-6-(4-methylphenyl)-7H-[1,2,4]triazolo[3,4-b][1,3,4]thiadiazine] | 2630 | 1440 | 5510 | 1290 | – | – | – | – |
| Cc1ccc(C2=Nn3c(nnc3-c3cc([N+](=O)[O-])cn3C)SC2)cc1 [Example 95, 3-(1-Methyl-4-nitro-1H-pyrrol-2-yl)-6-(4-methylphenyl)-7H-[1,2,4]triazolo[3,4-b][1,3,4]thiadiazine] | – | – | – | – | 2700 | 478 | 693 | 328 |
| COc1ccccc1-c1nnc2n1N=C(c1cc(Br)c3c(c1)CCN3)CS2 [Example 96, 6-(7-Bromoindolin-5-yl)-3-(2-methoxyphenyl)-7H-[1,2,4]triazolo[3,4-b][1,3,4]thiadiazine] | – | – | – | – | 136 | 35 | 79 | 31 |
| COc1cc(Cl)ccc1-c1nnc2n1N=C(c1ccc(C)cc1)CS2 [Example 97, 3-(4-Chloro-2-methoxyphenyl)-6-(4-methylphenyl)-7H-[1,2,4]triazolo[3,4-b][1,3,4]thiadiazine] | – | – | – | – | 34 | 6 | 8 | 4 |
| Cc1ccc(C2=Nn3c(nnc3-c3c(C)nc4ccccn34)SC2)cc1 [Example 98, 3-(2-Methyl-imidazo[1,2-a]pyridin-3-yl)-6-(4-methylphenyl)-7H-[1,2,4]triazolo[3,4-b][1,3,4]thiadiazine] | – | – | – | – | 166 | 59 | 98 | 66 |
| Cc1ccc(C2=Nn3c(nnc3-c3cc(N)cn3C)SC2)cc1 [Example 99, 3-(1-Methyl-4-amino-1H-pyrrol-2-yl)-6-(4-methylphenyl)-7H-[1,2,4]triazolo[3,4-b][1,3,4]thiadiazine] | – | – | – | – | 5420 | 1260 | 1780 | 1180 |

More lines, now with the values ahead:

| EC50 [1, 5] [nM] | EC50 [2, 6] [nM] | EC50 [3, 7] [nM] | EC50 [4, 8] [nM] | EC50 [1, 9] [nM] | EC50 [2, 10] [nM] | EC50 [3, 11] [nM] | EC50 [4, 12] [nM] | Compound |
| --- | --- | --- | --- | --- | --- | --- | --- | --- |
| 175 | 43 | 58 | 61 | – | – | – | – | COc1cc(-c2nnc3n2N=C(c2ccc(N(C)C)cc2)CS3)cc(OC)c1OC [Example 67, 6-(4-Dimethylaminophenyl)-3-(3,4,5-trimethoxyphenyl)-7H-[1,2,4]triazolo[3,4-b][1,3,4]thiadiazine] |
| 259 | 51 | 124 | 73 | – | – | – | – | COc1ccccc1-c1nnc2n1N=C(c1cc(Br)c(N)c(Br)c1)CS2 [Example 78, 6-(4-Amino-3,5-dibromophenyl)-3-(2-methoxyphenyl)-7H-[1,2,4]triazolo[3,4-b][1,3,4]thiadiazine] |
| 907 | 562 | 1250 | 304 | – | – | – | – | COc1ccccc1-c1nnc2n1N=C(c1cc(I)c(N)c(I)c1)CS2 [Example 79, 6-(4-Amino-3,5-diiodophenyl)-3-(2-methoxyphenyl)-7H-[1,2,4]triazolo[3,4-b][1,3,4]thiadiazine] |
| 605 | 500 | 370 | 497 | – | – | – | – | COc1ccccc1-c1nnc2n1N=C(c1cccc(C)c1)CS2 [Example 82, 3-(2-Methoxyphenyl)-6-(3-methylphenyl)-7H-[1,2,4]triazolo[3,4-b][1,3,4]thiadiazine] |
| 2540 | 523 | 683 | 332 | – | – | – | – | Cc1ccc(C2=Nn3c(nnc3-c3ccoc3C)SC2)cc1 [Example 83, 3-(2-Methylfuran-3-yl)-6-(4-methylphenyl)-7H-[1,2,4]triazolo[3,4-b][1,3,4]thiadiazine] |
| 274 | 253 | 298 | 209 | – | – | – | – | COC(=O)c1ccc(C2=Nn3c(nnc3-c3ccccc3OC)SC2)cc1 [Example 85, 6-(4-Methoxycarbonylphenyl)-3-(2-methoxyphenyl)-7H-[1,2,4]triazolo[3,4-b][1,3,4]thiadiazine] |
| 525 | 380 | 1320 | 320 | – | – | – | – | COc1ccccc1-c1nnc2n1N=C(c1ccn(C)c1)CS2 [Example 86, 3-(2-Methoxyphenyl)-6-(1-methyl-1H-pyrrol-3-yl)-7H-[1,2,4]triazolo[3,4-b][1,3,4]thiadiazine] |
| 915 | 412 | 492 | 303 | – | – | – | – | Cc1cc(Cl)ccc1-c1nnc2n1N=C(c1ccc(C)c([N+](=O)[O-])c1)CS2 [Example 90, 3-(4-Chloro-2-methylphenyl)-6-(4-methyl-3-nitrophenyl)-7H-[1,2,4]triazolo[3,4-b][1,3,4]thiadiazine] |
| 63 | 28 | 30 | 16 | – | – | – | – | Cc1ccc(C2=Nn3c(nnc3-c3ccc(Cl)cc3C)SC2)cc1N [Example 91, 6-(3-Amino-4-methylphenyl)-3-(4-chloro-2-methylphenyl)-7H-[1,2,4]triazolo[3,4-b][1,3,4]thiadiazine] |
